# Data reported in US20090306052A1, “INDENYL DERIVATIVES AND USE THEREOF FOR THE TREATMENT OF NEUROLOGICAL DISORDERS” (Glaxo Group Limited, priority 2004, published 2009).
# Target: T1, histamine H3 receptor (Homo sapiens, UniProt Q9Y5N1)
# T1 construct: expressed in transfected cells; host or cells: CHO K1 cells carrying the pSwitch regulatory plasmid, transfected with pGeneH3 and induced with mifepristone; clone 3H3; membrane preparation
# Experiment: Histamine H3 functional antagonist assay ([35S]-GTPγS SPA, membranes from cultured H3 cells)
# Type: biochemical
# Settings: hydrochloride salts tested; averages of a number of experiments; membrane prepared from cultured H3 cells; read-out: functional pKi (fpKi), histamine H3 functional antagonist assay (converted)
# Source text: A membrane preparation containing histamine H3 receptors may be prepared in accordance with the following procedures:
# DNA encoding the human histamine H3 gene (Huvar, A. et al. (1999) Mol. Pharmacol. 55(6), 1101-1107) was cloned into a holding vector, pcDNA3.1 TOPO (InVitrogen) and its cDNA was isolated from this vector by restriction digestion of plasmid DNA with the enzymes BamH1 and Not-1 and ligated into the inducible expression vector pGene (InVitrogen) digested with the same enzymes. The GeneSwitch™ system (a system where in transgene expression is switched off in the absence of an inducer and switched on in the presence of an inducer) was performed as described in U.S. Pat. Nos. 5,364,791; 5,874,534; and 5,935,934. Ligated DNA was transformed into competent DH5α E. coli host bacterial cells and plated onto Luria Broth (LB) agar containing Zeocin™ (an antibiotic which allows the selection of cells expressing the sh ble gene which is present on pGene and pSwitch) at 50 μg ml^−1. Colonies containing the re-ligated plasmid were identified by restriction analysis. DNA for transfection into mammalian cells was prepared from 250 ml cultures of the host bacterium containing the pGeneH3 plasmid and isolated using a DNA preparation kit (Qiagen Midi-Prep) as per manufacturers guidelines (Qiagen).
# CHO K1 cells previously transfected with the pSwitch regulatory plasmid (InVitrogen) were seeded at 2×10e6 cells per T75 flask in Complete Medium, containing Hams F12 (GIBCOBRL, Life Technologies) medium supplemented with 10% v/v dialysed foetal bovine serum, L-glutamine, and hygromycin (100 μg ml^−1), 24 hours prior to use. Plasmid DNA was transfected into the cells using Lipofectamine plus according to the manufacturers guidelines (InVitrogen). 48 hours post transfection cells were placed into complete medium supplemented with 500 μg ml^−1 Zeocin™.
# 10-14 days post selection 10 nM Mifepristone (InVitrogen), was added to the culture medium to induce the expression of the receptor. 18 hours post induction cells were detached from the flask using ethylenediamine tetra-acetic acid (EDTA; 1:5000; InVitrogen), following several washes with phosphate buffered saline pH 7.4 and resuspended in Sorting Medium containing Minimum Essential Medium (MEM), without phenol red, and supplemented with Earles salts and 3% Foetal Clone II (Hyclone). Approximately 1×10e7 cells were examined for receptor expression by staining with a rabbit polyclonal antibody, 4a, raised against the N-terminal domain of the histamine H3 receptor, incubated on ice for 60 minutes, followed by two washes in sorting medium. Receptor bound antibody was detected by incubation of the cells for 60 minutes on ice with a goat anti rabbit antibody, conjugated with Alexa 488 fluorescence marker (Molecular Probes). Following two further washes with Sorting Medium, cells were filtered through a 50 μm Filcon™ (BD Biosciences) and then analysed on a FACS Vantage SE Flow Cytometer fitted with an Automatic Cell Deposition Unit. Control cells were non-induced cells treated in a similar manner. Positively stained cells were sorted as single cells into 96-well plates, containing Complete Medium containing 500 μg ml^−1 Zeocin™ and allowed to expand before reanalysis for receptor expression via antibody and ligand binding studies. One clone, 3H3, was selected for membrane preparation.
# All steps of the protocol are carried out at 4° C. and with pre-cooled reagents. […]
# T1 sequence (Q9Y5N1 whole entry): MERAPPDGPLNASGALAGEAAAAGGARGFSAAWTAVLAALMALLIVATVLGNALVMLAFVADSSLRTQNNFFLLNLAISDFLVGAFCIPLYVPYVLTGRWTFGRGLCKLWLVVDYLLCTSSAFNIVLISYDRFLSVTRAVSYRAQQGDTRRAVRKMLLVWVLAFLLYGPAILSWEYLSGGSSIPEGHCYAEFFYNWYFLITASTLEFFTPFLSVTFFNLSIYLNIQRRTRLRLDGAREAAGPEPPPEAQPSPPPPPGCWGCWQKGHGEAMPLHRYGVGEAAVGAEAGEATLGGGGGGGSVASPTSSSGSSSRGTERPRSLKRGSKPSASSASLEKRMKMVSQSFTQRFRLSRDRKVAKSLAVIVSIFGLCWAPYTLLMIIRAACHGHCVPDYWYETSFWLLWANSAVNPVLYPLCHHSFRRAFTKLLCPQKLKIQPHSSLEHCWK
row,Structure (SMILES),Ki [nM]
1,"O=C1CCCN1c1ccc(Oc2ccc3c(c2)CC(N2CCCC2)C3)nc1 (racemic) [Example 3, 1-(6-{[2-(1-Pyrrolidinyl)-2,3-dihydro-1H-inden-5-yl]oxy}-3-pyridinyl)-2-pyrrolidinone]",< 1
2,"O=C1CCCN1c1ccc(Oc2ccc3c(c2)CC(N2CCCC2)C3)nc1 (single isomer, unassigned; enantiomer 1) [Example 4, (−)-Enantiomer 1-(6-{[2-(1-Pyrrolidinyl)-2,3-dihydro-1H-inden-5-yl]oxy}-3-pyridinyl)-2-pyrrolidinone]",< 1

# Now from value to compound:
row,Ki [nM],Structure (SMILES)
1,< 1,"CNC(=O)c1ccc(Oc2ccc3c(c2)CC(N2CCCC2)C3)nc1 (single isomer, unassigned; (-)) [Example 22, (−)-Enantiomer N-methyl-6-{[2-(1-pyrrolidinyl)-2,3-dihydro-1H-inden-5-yl]oxy}-3-pyridinecarboxamide]"
2,< 1,"O=C(c1ccc(Oc2ccc3c(c2)CC(N2CCCC2)C3)nc1)N1CCCC1 (centres unmarked) [Example 12, 5-(1-Pyrrolidinylcarbonyl)-2-{[2-(1-pyrrolidinyl)-2,3-dihydro-1H-inden-5-yl]oxy}pyridine]"
3,< 1,"C[C@H]1CCCN1C1Cc2ccc(Oc3ccc(N4CCCC4=O)cn3)cc2C1 (stereo partly drawn) [Example 20, 1-[6-({2-[(2S)-2-Methyl-1-pyrrolidinyl]-2,3-dihydro-1H-inden-5-yl}oxy)-3-pyridinyl]-2-pyrrolidinone]"
